Structure (SMILES) | melting point [°C]
CN1CCC(c2cccc3ccc(NC(=O)c4ccccc4)cc23)C1 (centres unmarked) [Example 69, 7-Benzamido-1-(1-methyl-3-pyrrolidinyl)-naphthalene] | 137 to 145
CN1CCN(c2cccc3ccc(C(=O)NCc4ccc(Cl)cc4)cc23)CC1 [Example 80, 8-(4-Methylpiperazin-1-yl)naphthalene-2-carboxylic Acid 4-chlorobenzylamide] | 72 to 74

Source: patent publication US20050080090A1, “Naphthalene derivatives” (priority 1993, published 2005)
